This series deals with ozone. Kind of series: apparent second-order rate constant for reaction with ozone (kapp,O3) (M-1 s-1); higher = faster oxidation by ozone. As to conditions: pH 7; temperature: 22 C; OH radical scavenger: tBuOH 80 mM; phosphate 4 mM. As for the experimental part:
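Apparent second-order rate constants for reaction with ozone at pH 7 were determined by multicompound competition kinetics. Mixtures of targets and competitors (10 ug/L each) were ozonated in 4 mM phosphate buffer, pH 7, with 80 mM tBuOH as OH-radical scavenger, at 22 ± 1 °C. Peak-area abatement was measured by HPLC-HRMS/MS and k was derived from ln-ln slopes against competitors with known k (R2 > 0.9, >= 10 points, slope 0.1-10). Experiments were run in triplicate on 3 days; the value is the mean over valid competitors ± SD.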

± gives the uncertainty stated by the source. Where only a bound is given, the exact number is not on record here.

As for `CNC(=C[N+](=O)[O-])NCC[S+]([O-])Cc1ccc(CN(C)C)o1` (centres undefined) [Ranitidine-S-oxide], the “apparent second-order rate constant” value is 1.75e+06 ± 70000.
As to `CNC(=C[N+](=O)[O-])NCCSCc1ccc(C[N+](C)(C)[O-])o1` [Ranitidine-N-oxide], the “apparent second-order rate constant” value amounted to 3.45e+06 ± 340000.
Regarding `COc1ccc2c(c1)c(CC(=O)O)c(C)n2C(=O)c1ccc(Cl)cc1` [Indomethacin], the “apparent second-order rate constant” value turned out to be 5.15e+06 ± 670000.
With `COc1ccc(C2CC(=O)c3c(O)cc(O)cc3O2)cc1O` (centres undefined) [Hesperitin], the “apparent second-order rate constant” value is 3.3e+07 ± 7e+06.
`Nc1[nH]c(=O)ncc1F` [5-Fluorocytosine]: the “apparent second-order rate constant” value worked out at 24300 ± 2500.
Regarding `CCC1OC(=O)C(C)C(OC2CC(C)(OC)C(O)C(C)O2)C(C)C(OC2OC(C)CC(N(C)C)C2O)C(C)(O)CC(C)CN(C)C(C)C(O)C1(C)O` (centres undefined) [Azithromycin], the “apparent second-order rate constant” value came to 72000 ± 17000.
As for `O=c1ccn(C2OC(CO)C(O)C2(F)F)c(=O)[nH]1` (centres undefined) [2'-Deoxy-2',2'-difluorouridine], the “apparent second-order rate constant” value is 562 ± 27.
Take `O=C1CC2(CCCCC2)CN1` [Gabapentin-lactam]: the “apparent second-order rate constant” value turned out to be 1.51 ± 0.16.
The result for `Nc1ccc(S(=O)(=O)Nc2nccs2)cc1` [Sulfathiazole] reads 9.8e+06 ± 700000; that for `COc1cc(OC)nc(NS(=O)(=O)c2ccc(NC(C)=O)cc2)n1` [N4-Acetylsulfadimethoxine], 337000 ± 28000.
For the compound `CN1CCC23c4c5ccc(O)c4OC2C(O)C=CC3C1C5` (centres undefined) [Morphine], the “apparent second-order rate constant” value was 3.8e+07 ± 8e+06.
Turning to `CN1CCCC1c1cccnc1` (centres undefined) [Nicotine], the “apparent second-order rate constant” value came out at 332000 ± 30000.
Take `CC1CC2C(C(O)CC3(C)C2CCC3(O)C(=O)CO)C2(C)C=CC(=O)C=C12` (centres undefined) [Methylprednisolone]: the “apparent second-order rate constant” value is 87 ± 4.5.
As for `CN1C2CCC1C(C(=O)O)C(OC(=O)c1ccccc1)C2` (centres undefined) [Benzoylecgonine], the “apparent second-order rate constant” value stood at 11.3 ± 1.2.
For `CCCC1CC(C(=O)NC(C(C)Cl)C2OC(SC)C(O)C(O)C2O)N(C)C1` (centres undefined) [Clindamycin], the “apparent second-order rate constant” value is 749000 ± 65000.
Regarding `CC(=O)N(C)N(C(=O)C(=O)N(C)C)c1ccccc1` [Dioxypyramidon (AMDOPH)], the “apparent second-order rate constant” value was less than 0.401.
`CCC1OC(=O)C(C)C(OC2CC(C)(OC)C(O)C(C)O2)C(C)C(OC2OC(C)CC(N(C)C)C2O)C(C)(OC)CC(C)C(=O)C(C)C(O)C1(C)O` (centres undefined) [Clarithromycin]: the “apparent second-order rate constant” value was found to be 65000 ± 15000.
As to `COC(=O)C1=CCC2CCC1N2C` (centres undefined) [Anhydroecgonine methyl ester], the “apparent second-order rate constant” value came to 44000 ± 10000.
Regarding `CC(N)Cc1ccccc1` (centres undefined) [Amphetamine], the “apparent second-order rate constant” value amounted to 34 ± 4.
For `CN(C)CCOC(c1ccccc1)c1ccccc1` [Diphenhydramine], the “apparent second-order rate constant” value came to 5500 ± 140.
For `CCC(=O)C(CC(C)N(C)C)(c1ccccc1)c1ccccc1` (centres undefined) [Methadone], the “apparent second-order rate constant” value worked out at 4250 ± 360.
Turning to `NS(=O)(=O)c1cc2c(cc1Cl)NCNS2(=O)=O` [Hydrochlorothiazide], the “apparent second-order rate constant” value is 3000 ± 300.
The result for `Oc1ccc(C(F)(F)F)cc1` [4-Trifluoromethylphenol] reads 1.43e+06 ± 150000.
Turning to `CC(C(=O)O)c1cccc(C(=O)c2ccccc2)c1` (centres undefined) [Ketoprofen], the “apparent second-order rate constant” value was 0.529 ± 0.016.
In the case of `CC(=O)OC1C=CC2C3Cc4ccc(O)c5c4C2(CCN3C)C1O5` (centres undefined) [6-Acetylmorphine] it was 1.29e+07 ± 1.1e+06; in that of `O=C(O)CCNC(=O)c1ccc(Cl)cc1` [3-[(4-Chlorobenzoyl)amino]propanoic acid], 0.194 ± 0.008; in that of `CC(C)c1c(C(=O)Nc2ccccc2)c(-c2ccccc2)c(-c2ccc(F)cc2)n1CCC(O)CC(O)CC(=O)O` (centres undefined) [Atorvastatin], 1.5e+08 ± 3e+07.
`O=C1CC(c2ccc(O)c(O)c2)Oc2cc(O)cc(O)c21` (centres undefined) [Eriodictyol]: the “apparent second-order rate constant” value turned out to be 1.8e+07 ± 4e+06.
In the case of `O=c1ncnc2[nH][nH]cc1-2` [Allopurinol] it was 3.9 ± 0.4.
The result for `COc1cc(Cc2cnc(N)nc2N)cc(OC)c1O` [4-Desmethyltrimethoprim] reads 3.6e+07 ± 86; that for `Nc1ccn([C@@H]2CS[C@H](CO)O2)c(=O)n1` [Lamivudine], 61000 ± 14000; that for `CC(C(=O)O)c1ccc(C(O)C(C)C)cc1` (centres undefined) [1-Hydroxyibuprofen], 14.7 ± 1.6.
As to `CC(C)NCC(O)COc1ccc(CC(=O)O)cc1` (centres undefined) [Atenolol acid], the “apparent second-order rate constant” value is 845 ± 57.
The result for `CCC1(c2ccccc2)C(=O)NCNC1=O` [Primidone] reads 2.4 ± 0.3; that for `NCC1(CC(=O)O)CCCCC1` [Gabapentin], 11.4 ± 1.2; that for `CC(C)(Oc1ccc(C(=O)c2ccc(Cl)cc2)cc1)C(=O)O` [Fenofibric acid], 2.8 ± 0.3.
In the case of `CC(C)(Oc1ccc(Cl)cc1)C(=O)O` [Clofibric acid] it was 23 ± 3.
Turning to `COc1c(C)c2c(c(O)c1CC=C(C)CCC(=O)O)C(=O)OC2` [Mycophenolic acid], the “apparent second-order rate constant” value turned out to be 7.2e+07 ± 1.5e+07.
As for `COc1cc(Cc2cnc(N)nc2N)cc(O)c1OC` [3-Desmethyltrimethoprim], the “apparent second-order rate constant” value amounted to 1.17e+07 ± 900000.
Turning to `NCC(O)COc1ccc(CC(N)=O)cc1` (centres undefined) [Desisopropylatenolol], the “apparent second-order rate constant” value worked out at 134 ± 7.4.
On to `C#CC[N+](C)([O-])Cc1ccccc1` (centres undefined) [Pargyline-N-oxide], for which the “apparent second-order rate constant” value worked out at 68 ± 8.
As to `CC(NC(C)(C)CO)C(=O)c1cccc(Cl)c1` (centres undefined) [Hydroxybupropion], the “apparent second-order rate constant” value was determined as 3630 ± 310.
Turning to `CC(C)CC(CN)CC(=O)O` (centres undefined) [Pregabalin], the “apparent second-order rate constant” value amounted to 15.6 ± 1.1.
In the case of `CN(C)CCC(c1ccccc1)c1ccccn1` (centres undefined) [Pheniramine], the “apparent second-order rate constant” value was 17600 ± 1700.
The result for `Cn1c(=O)c2[nH]cnc2n(C)c1=O` [Theophylline] reads 885000 ± 78000.
Take `CCN1CCCC1CNC(=O)c1cc(S(=O)(=O)CC)c(N)cc1OC` (centres undefined) [Amisulpride]: the “apparent second-order rate constant” value amounted to 18000 ± 1600.
In the case of `Oc1cnc2c(c1)CCc1cc(Cl)ccc1C2=C1CCNCC1` [3-Hydroxydesloratadine] it was 6.3e+07 ± 1.4e+07.
Consider `COC(=O)C(c1ccccc1Cl)N1CCc2sccc2C1` (centres undefined) [Clopidogrel], for which the “apparent second-order rate constant” value came out at 335000 ± 28000.
The result for `CNCCC(c1ccccc1)c1ccccn1` (centres undefined) [N-Desmethylpheniramine] reads 975 ± 49; that for `COc1ccc(C2Sc3ccccc3N(CCN(C)C)C(=O)C2OC(C)=O)cc1` (centres undefined) [Diltiazem], 735000 ± 67000; that for `CNCC(c1ccc(OC)cc1)C1(O)CCCCC1` (centres undefined) [N-Desmethylvenlafaxine], 993 ± 55.
Consider `CC(C)c1nc(NS(C)(=O)=O)nc(-c2ccc(F)cc2)c1C=CC(O)CC(O)CC(=O)O` (centres undefined) [N-Desmethylrosuvastatin], for which the “apparent second-order rate constant” value turned out to be 26000 ± 2800.
In the case of `Nc1ccc(S(=O)(=O)Nc2ncccn2)cc1` [Sulfadiazine] it was 1.23e+06 ± 110000.
With `CCCC1CC(C(=O)NC(C(C)Cl)C2OC(S(C)=O)C(O)C(O)C2O)N(C)C1` (centres undefined) [Clindamycin-sulfoxide], the “apparent second-order rate constant” value was 336000 ± 30000.
For `CNCC(CC(=O)O)CC(C)C` (centres undefined) [N-Methylpregabalin], the “apparent second-order rate constant” value came out at 143 ± 7.6.
On to `CC(=O)Nc1c(I)c(C(=O)NCC(O)CO)c(I)c(C(=O)N(C)CC(O)CO)c1I` (centres undefined) [Desmethoxyiopromide], for which the “apparent second-order rate constant” value was found to be 1.74 ± 0.19.
In the case of `NCCC(Oc1ccc(C(F)(F)F)cc1)c1ccccc1` (centres undefined) [Norfluoxetine] it was 42 ± 2.5.
Consider `CC(=O)Nc1ccc(O)c(SCC(NC(=O)CCC(N)C(=O)O)C(=O)NCC(=O)O)c1` (centres undefined) [Paracetamol-glutathione], for which the “apparent second-order rate constant” value came to 1.1e+07 ± 2.4e+06.
As to `COC(=O)C(c1ccccc1)C1CCCCN1` (centres undefined) [Methylphenidate], the “apparent second-order rate constant” value was 4300 ± 360.
For the compound `O=c1nc[nH]c2c1ncn2C1CCC(CO)O1` (centres undefined) [Didanosine], the “apparent second-order rate constant” value stood at 4.5 ± 0.5.
In the case of `C#CCNC(C)Cc1ccccc1` (centres undefined) [Nordeprenyl] it was 14000 ± 1200; in that of `CC(C(=O)O)c1ccc2cc(O)ccc2c1` (centres undefined) [O-Desmethylnaproxen], 6.6e+06 ± 500000.
`CCC(c1cccc(O)c1)C(C)CN(C)C` (centres undefined) [Tapentadol]: the “apparent second-order rate constant” value is 1.83e+06 ± 140000.
The result for `O=C(O)c1ccccc1Nc1c(Cl)cccc1Cl` [Diclofenac carboxylic acid] reads 815000 ± 110000.
Turning to `CN1CCN2c3ncccc3Cc3ccccc3C2C1=O` (centres undefined) [1-Oxo-mirtazapine], the “apparent second-order rate constant” value amounted to 64000 ± 14000.
In the case of `CN1CCC23CCCCC2C1Cc1ccc(O)cc13` (centres undefined) [Dextrorphan] it was 1.87e+06 ± 170000; in that of `CNCCCC(C#N)(c1ccc(OC)c(OC)c1)C(C)C` (centres undefined), 2300 ± 200.
Regarding `CC(N)Cc1ccc(O)cc1` (centres undefined) [4-Hydroxyamphetamine], the “apparent second-order rate constant” value worked out at 2.48e+06 ± 220000.
In the case of `Clc1ccc2c(c1)CCc1cccnc1C2=C1CCNCC1` [Desloratadine] it was 1960 ± 160.

Values taken from the supplement of paper PMC12490022.
